For ten compounds, IC50, AC50 and EC50 results are on record in ChEMBL document CHEMBL1201862, “PubChem BioAssay data set” (2004).

The source made the active and inactive calls. Where only a bound is given, the exact number is not on record here.

The target of assay [1] is Phospholipase A2 (Homo sapiens, UniProt P04054). It is filed as functional.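 Also: confirmatory dose-response counterscreen on phospholipase A2, testing hits that came from an ultra-high-throughput screen for ATG4B inhibitors.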
Sequence of Phospholipase A2 (P04054 whole entry): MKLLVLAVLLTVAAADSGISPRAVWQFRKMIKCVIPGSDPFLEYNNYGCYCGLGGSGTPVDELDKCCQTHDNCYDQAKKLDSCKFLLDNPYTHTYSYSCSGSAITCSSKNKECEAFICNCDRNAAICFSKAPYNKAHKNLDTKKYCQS
The target of assay [2] is T1, Cysteine protease ATG4B (Homo sapiens, UniProt Q9Y4P1).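 Also: Fluorescence-based dose-response confirmation assay measuring inhibition of ATG4B activity.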
T1 sequence (Q9Y4P1 whole entry): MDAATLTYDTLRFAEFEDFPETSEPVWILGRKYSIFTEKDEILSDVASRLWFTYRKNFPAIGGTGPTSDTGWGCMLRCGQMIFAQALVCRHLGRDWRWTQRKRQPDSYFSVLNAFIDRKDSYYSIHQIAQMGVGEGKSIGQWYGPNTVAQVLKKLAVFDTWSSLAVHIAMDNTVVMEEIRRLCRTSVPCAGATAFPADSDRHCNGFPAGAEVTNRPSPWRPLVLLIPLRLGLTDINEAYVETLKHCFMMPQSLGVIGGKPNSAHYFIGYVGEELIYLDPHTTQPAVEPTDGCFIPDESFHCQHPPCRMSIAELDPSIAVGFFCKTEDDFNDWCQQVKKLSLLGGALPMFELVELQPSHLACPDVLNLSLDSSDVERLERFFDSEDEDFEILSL
It is filed as functional.

Assay [3] addresses T2, Caspase-3 (Homo sapiens, UniProt P42574).
T2 sequence (P42574 whole entry): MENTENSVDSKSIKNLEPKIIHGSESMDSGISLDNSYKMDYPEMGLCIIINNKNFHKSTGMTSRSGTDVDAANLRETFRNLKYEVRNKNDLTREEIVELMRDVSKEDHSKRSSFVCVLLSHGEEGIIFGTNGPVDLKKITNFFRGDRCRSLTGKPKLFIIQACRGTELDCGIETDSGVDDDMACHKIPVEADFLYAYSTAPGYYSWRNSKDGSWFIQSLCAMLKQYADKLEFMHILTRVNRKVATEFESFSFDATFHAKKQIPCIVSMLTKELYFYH
It is filed as functional.

Assay [4] concerns the target T3, Sentrin-specific protease 8 (Homo sapiens, UniProt Q96LD8).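 Also: luminescence read-out of SENP8 inhibition, dose-response confirmation following an ultra-high-throughput screen.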
T3 sequence (Q96LD8 whole entry): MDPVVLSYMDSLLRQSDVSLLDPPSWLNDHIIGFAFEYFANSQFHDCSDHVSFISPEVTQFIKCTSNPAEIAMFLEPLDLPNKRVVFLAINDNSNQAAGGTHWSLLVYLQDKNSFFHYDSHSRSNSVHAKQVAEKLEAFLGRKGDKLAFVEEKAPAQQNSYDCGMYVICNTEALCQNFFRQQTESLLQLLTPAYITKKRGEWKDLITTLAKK
The format is functional.

Assay [5] addresses T4, Sentrin-specific protease 6 (Homo sapiens, UniProt Q9GZR1).
T4 sequence (Q9GZR1 whole entry): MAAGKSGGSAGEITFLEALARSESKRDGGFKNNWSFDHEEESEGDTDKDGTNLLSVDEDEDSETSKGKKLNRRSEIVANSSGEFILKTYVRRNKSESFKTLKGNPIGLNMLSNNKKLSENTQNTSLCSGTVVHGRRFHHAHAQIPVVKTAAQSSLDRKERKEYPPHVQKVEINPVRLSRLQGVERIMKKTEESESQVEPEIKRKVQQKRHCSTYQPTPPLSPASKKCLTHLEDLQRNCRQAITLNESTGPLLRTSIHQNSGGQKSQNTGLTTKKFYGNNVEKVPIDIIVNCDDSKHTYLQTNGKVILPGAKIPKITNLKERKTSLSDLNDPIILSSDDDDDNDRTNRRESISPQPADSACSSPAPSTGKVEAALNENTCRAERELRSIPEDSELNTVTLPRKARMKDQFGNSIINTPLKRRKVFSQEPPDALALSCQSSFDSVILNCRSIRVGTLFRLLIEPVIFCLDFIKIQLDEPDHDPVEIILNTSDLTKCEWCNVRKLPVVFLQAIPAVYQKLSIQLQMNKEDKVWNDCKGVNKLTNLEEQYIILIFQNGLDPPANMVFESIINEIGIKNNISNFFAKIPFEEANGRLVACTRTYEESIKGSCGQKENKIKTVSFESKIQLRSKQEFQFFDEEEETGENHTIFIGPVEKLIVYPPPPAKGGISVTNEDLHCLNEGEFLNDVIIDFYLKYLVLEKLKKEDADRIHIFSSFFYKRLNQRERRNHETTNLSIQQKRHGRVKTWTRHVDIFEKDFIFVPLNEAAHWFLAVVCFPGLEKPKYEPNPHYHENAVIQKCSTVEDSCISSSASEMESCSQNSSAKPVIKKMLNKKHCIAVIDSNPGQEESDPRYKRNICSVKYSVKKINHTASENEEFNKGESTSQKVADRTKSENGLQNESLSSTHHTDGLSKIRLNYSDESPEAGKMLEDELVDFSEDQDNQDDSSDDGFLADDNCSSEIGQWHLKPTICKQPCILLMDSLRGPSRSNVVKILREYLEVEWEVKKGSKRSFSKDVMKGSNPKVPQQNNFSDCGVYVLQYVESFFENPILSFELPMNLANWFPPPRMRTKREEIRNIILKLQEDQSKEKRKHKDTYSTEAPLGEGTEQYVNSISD
It is filed as functional.

For assay [6], the system named is HeLa. The experiment in a line: ATP-based viability loss in HeLa cells – cell-based, CellTiter-Glo luminescence, cherry-pick samples, cytotoxicity control for MITF activator project, dose response (AID 540259). It is filed as functional. The note with it: Homo sapiens. (In general: In ATP-based viability assays light output follows the ATP content of the culture.)

Assay [7] has as its target T5, Sentrin-specific protease 7 (Homo sapiens, UniProt Q9BQF6).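 Also: Luminescence-based dose-response confirmation of ultra-high-throughput screening hits, measuring inhibition of SENP7.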
T5 sequence (Q9BQF6 whole entry): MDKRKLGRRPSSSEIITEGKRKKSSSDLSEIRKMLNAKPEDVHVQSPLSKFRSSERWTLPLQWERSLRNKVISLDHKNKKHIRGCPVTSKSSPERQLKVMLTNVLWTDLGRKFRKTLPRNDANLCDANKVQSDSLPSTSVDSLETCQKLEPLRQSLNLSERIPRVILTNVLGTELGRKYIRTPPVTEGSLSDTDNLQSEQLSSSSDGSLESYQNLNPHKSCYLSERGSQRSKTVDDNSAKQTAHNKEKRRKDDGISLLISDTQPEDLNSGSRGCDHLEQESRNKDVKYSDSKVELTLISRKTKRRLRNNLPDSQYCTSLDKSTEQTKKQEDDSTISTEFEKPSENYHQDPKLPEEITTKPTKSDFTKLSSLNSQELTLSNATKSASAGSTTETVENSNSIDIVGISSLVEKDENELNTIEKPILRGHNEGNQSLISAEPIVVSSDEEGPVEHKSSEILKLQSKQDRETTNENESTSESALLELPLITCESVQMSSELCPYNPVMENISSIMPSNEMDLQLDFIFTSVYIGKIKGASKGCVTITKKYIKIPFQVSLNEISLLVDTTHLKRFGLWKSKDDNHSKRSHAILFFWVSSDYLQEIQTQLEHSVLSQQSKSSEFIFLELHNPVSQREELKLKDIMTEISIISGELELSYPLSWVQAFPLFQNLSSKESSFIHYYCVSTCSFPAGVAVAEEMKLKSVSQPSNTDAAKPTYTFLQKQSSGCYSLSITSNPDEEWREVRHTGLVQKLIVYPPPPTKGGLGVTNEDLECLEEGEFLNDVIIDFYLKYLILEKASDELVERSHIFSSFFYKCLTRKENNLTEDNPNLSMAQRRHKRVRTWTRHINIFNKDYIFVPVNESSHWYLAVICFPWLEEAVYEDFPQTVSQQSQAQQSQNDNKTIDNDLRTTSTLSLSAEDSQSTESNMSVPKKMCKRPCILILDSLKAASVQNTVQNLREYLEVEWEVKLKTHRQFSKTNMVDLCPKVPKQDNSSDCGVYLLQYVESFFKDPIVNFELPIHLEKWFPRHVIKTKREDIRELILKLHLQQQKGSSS
The format is functional.

Assay [8] concerns the target Beta-galactosidase (Escherichia coli, UniProt Q8VNN2). Put plainly: PubChem AID 485352. The format is functional.
Assay [9] concerns the target T6, Type-1 angiotensin II receptor (Homo sapiens, UniProt P30556).
T6 sequence (P30556 whole entry): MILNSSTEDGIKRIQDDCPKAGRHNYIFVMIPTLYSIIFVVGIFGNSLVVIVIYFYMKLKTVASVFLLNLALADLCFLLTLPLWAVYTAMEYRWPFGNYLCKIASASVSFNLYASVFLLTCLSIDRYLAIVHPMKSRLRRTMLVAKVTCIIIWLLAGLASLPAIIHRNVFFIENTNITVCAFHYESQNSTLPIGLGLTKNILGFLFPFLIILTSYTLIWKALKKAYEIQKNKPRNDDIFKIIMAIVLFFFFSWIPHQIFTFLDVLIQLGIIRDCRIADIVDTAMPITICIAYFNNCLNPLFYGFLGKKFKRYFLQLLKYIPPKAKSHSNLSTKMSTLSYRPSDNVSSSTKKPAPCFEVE
The experiment in a line: antagonism of angiotensin II type 1 receptor – cell-based, uHTS hits, selectivity assay for APJ receptor antagonist project, dose response (AID 463214).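 Also: antagonist potency against angiotensin II stimulated AT1 response.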 The format is functional.

The target of assay [10] is T7, Endoribonuclease toxin MazF (Escherichia coli K-12, UniProt P0AE70).
T7 sequence (P0AE70 whole entry): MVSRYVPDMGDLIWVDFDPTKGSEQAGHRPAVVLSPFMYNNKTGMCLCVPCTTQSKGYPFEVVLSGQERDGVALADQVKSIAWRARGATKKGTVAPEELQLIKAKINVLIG
The experiment in a line: activation of MazEF endoribonuclease cleavage – biochemical, fluorescence, single-stranded RNA substrate, uHTS hits, dose response (AID 588481). It is filed as functional.

For assay [11], the target named is T7, Endoribonuclease toxin MazF. Put plainly: substrate-only fluorescence increase artefacts – biochemical, single-stranded RNase substrate, counter-screen for MazEF activator project, dose response (AID 588502). The format is functional.
In assay [12] the target is Cytochrome P450 3A4 (Homo sapiens, UniProt P08684).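 Also: CYP3A4 tested as one member of a cytochrome P450 panel screen.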
Sequence of Cytochrome P450 3A4 (P08684 whole entry): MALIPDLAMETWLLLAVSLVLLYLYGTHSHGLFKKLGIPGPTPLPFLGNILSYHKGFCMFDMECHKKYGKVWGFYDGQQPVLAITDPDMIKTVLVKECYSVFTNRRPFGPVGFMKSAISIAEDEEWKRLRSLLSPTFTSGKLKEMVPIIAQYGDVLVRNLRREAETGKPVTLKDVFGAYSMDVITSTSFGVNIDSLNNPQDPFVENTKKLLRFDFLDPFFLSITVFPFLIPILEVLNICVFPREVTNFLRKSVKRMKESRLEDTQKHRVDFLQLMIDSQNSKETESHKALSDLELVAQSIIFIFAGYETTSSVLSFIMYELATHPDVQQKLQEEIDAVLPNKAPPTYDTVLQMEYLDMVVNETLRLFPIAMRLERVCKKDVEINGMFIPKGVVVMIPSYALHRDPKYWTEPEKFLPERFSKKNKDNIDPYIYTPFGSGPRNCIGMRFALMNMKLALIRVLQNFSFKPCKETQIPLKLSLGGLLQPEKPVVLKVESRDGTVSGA
The subject of assay [13] is HEK293. The experiment in a line: cells. The note with it: Homo sapiens. The format is functional, cell-based.
Assay [14] addresses Cytochrome P450 2D6 (Homo sapiens, UniProt P10635).
In assay [15] the target is T8, Nuclear receptor subfamily 0 group B member 1 (Homo sapiens, UniProt P51843).
T8 sequence (P51843 whole entry): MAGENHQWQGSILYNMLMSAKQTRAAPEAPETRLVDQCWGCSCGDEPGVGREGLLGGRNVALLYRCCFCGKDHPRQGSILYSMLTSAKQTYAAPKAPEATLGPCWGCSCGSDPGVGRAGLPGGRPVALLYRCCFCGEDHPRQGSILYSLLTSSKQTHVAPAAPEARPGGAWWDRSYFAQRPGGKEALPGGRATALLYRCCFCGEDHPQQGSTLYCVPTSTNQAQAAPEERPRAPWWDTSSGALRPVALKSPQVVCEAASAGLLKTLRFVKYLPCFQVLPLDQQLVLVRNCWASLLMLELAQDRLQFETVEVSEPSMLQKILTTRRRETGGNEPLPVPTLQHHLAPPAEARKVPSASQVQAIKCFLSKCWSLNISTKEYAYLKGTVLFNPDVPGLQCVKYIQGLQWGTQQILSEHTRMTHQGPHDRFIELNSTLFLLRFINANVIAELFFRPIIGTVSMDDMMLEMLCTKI
Put plainly: Luminescence-based cell-based high throughput dose response assay for inhibitors of the orphan nuclear receptor subfamily 0, group B, member 1 (DAX1; NR0B1). [Related pubchem assays (depositor defined):AID504766, AID504790]. It is filed as functional.

Sequence of Beta-galactosidase (Q8VNN2 whole entry): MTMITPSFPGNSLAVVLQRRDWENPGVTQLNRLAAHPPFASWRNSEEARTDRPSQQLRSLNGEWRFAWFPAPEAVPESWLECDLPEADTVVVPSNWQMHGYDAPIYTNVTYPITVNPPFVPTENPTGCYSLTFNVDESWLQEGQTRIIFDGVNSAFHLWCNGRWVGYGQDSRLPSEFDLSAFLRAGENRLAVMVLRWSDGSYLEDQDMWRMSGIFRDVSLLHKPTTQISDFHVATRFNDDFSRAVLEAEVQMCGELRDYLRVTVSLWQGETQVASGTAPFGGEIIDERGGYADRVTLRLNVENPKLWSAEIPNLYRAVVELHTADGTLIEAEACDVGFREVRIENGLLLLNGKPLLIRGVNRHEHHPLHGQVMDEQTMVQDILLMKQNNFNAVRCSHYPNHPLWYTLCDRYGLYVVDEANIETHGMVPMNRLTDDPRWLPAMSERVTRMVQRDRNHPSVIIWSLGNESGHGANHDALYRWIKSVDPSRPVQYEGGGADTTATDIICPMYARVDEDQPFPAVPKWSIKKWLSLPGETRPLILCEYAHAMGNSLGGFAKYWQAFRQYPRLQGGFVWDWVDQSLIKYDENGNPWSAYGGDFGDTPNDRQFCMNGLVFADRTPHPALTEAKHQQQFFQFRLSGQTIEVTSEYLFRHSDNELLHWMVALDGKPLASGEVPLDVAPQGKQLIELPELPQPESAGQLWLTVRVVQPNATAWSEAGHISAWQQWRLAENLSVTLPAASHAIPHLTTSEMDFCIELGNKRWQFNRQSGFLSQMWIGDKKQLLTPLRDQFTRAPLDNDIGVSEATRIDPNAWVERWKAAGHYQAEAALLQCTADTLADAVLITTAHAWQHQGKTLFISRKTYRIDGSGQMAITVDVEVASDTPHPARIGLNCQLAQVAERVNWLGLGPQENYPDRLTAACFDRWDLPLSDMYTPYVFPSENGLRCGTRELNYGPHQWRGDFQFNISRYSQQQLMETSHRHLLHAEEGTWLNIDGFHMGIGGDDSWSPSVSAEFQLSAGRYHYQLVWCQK
Sequence of Cytochrome P450 2D6 (P10635 whole entry): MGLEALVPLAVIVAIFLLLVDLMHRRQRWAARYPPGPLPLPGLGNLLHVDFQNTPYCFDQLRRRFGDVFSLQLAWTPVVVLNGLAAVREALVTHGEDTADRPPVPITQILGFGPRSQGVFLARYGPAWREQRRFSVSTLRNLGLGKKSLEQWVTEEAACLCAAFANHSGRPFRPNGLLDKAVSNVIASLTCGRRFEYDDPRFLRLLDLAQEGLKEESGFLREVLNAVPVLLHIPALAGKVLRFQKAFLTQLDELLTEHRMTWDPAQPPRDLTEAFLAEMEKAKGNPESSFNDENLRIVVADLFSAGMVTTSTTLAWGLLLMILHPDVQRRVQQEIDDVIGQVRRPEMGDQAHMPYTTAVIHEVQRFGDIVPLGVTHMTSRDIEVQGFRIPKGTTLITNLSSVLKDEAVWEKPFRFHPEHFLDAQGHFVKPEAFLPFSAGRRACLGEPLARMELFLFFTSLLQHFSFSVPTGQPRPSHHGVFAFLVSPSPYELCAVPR

A word on the IC50: it is the point on the concentration scale where inhibition reaches its midpoint. Turning to `Cc1ccc(C(=O)NN=C(S)Nc2cccc(Cl)c2Cl)cc1[N+](=O)[O-]`, the half-inhibitory concentration (IC50) in assay [1] was 13.3 µM (active); in [2] it was 20.8 µM (inactive).

On to `CCC(C)N(C(=O)COc1ccc(Br)cc1C=O)C1CCS(=O)(=O)C1` (stereo not given), for which the results for the concentration for half-maximal inhibition (IC50) in assay [1] and in assay [2] were 8.26 µM (active) and 10.1 µM (active), respectively.

As usually defined, the AC50 is the concentration giving half of the maximal activity seen. As for `Cc1ccc(C)c(NC(=O)c2cc(-c3cc(C)ccc3O)[nH]n2)c1`, the IC50 is 22.3 µM (active) in assay [3], > 100 µM (inactive) in assay [4], > 100 µM (inactive) in [5] and 5.17 µM (active) in assay [7]. Further, the AC50 in [6] is 41.9 µM (active).

By EC50 is commonly meant the concentration that produces a half-maximal response. As for `FC(F)(F)c1cnc(NNC(=S)Nc2cccnc2)c(Cl)c1`, the EC50 in assay [8] was > 40 µM (inactive). The IC50 in assay [9] was 15.1 µM (active).

As to `Cc1ccc(C(=O)COC(=O)CNC(=O)c2ccc(Br)o2)cc1[N+](=O)[O-]`, in assay [8], the EC50 was > 40 µM (inactive). In addition, the IC50 in assay [9] is > 40 µM (not active).

Take `COc1ccc(C)cc1Nc1n[n+](-c2ccccc2)c(-c2cc([N+](=O)[O-])cc(OC)c2O)s1`: the EC50 in assay [10] was 23.5 µM (inactive); in assay [11], 58.4 µM (inactive).

On to `CCCC(=O)NC(=S)Nc1cccc(Cl)c1N1CCCCC1`, for which the IC50 in assay [1] is 6.52 µM (active); in assay [2], 9.11 µM (active).

Take `O=C(COC(=O)c1cnccn1)c1ccc(Cl)c([N+](=O)[O-])c1`: the EC50 in assay [8] was > 40 µM (inactive). Also, in assay [9], the IC50 was 12.5 µM (active).

On to `Cc1cc(C)c(NC(=O)C2CCCN2C)c(C)c1` (stereo not given), for which the AC50 in [12] is 25.1 µM (inconclusive); in assay [14], 28.2 µM (inconclusive). In addition, the IC50 in assay [13] and in assay [15] was > 67.3 µM (inactive) each time.

Regarding `Cc1noc(C)c1S(=O)(=O)N1CCN(S(=O)(=O)c2ccccc2C#N)CC1`, the IC50 in assay [13] and in assay [15] was > 67.5 µM (inactive) in each case.
